Results on one compound are retold here after patent US8916604B2, “Compositions and methods for epigenetic modification of nucleic acid sequences” (Rutgers, The State University of New Jersey, priority 2011, dated 2014).

For assay [1], the system named is antioxidant response element (ARE). Kind of assay: ARE-luciferase reporter assay with combination index calculation. It counts as cell-based, human. As for the experimental part: The stably transfected single clone HepG2-ARE-C8 (HepG2-C8) cell line has been established previously in our laboratory using the […]-luciferase reporter gene. The cells were maintained in Dulbecco's modified Eagle medium supplemented with 10% fetal bovine serum (FBS), 1.17 g/l sodium bicarbonate, and 100 unit/ml penicillin, 100 μg/ml streptomycin at 37° C. in a humidified incubator with 5% CO2. The HepG2-C8 cells were cultured in 12-well plates and each well contained 1 million cells in 1 ml of 10% FRS medium. The cells were treated with compounds for 24 h. The luciferase activity was determined using a luciferase kit from Promega (Madison, USA) according to the manufacturer's instructions. Briefly, after treatments for 24 h, the cells were washed twice with ice-cold phosphate buffered-saline (PBS, pH 7.4) and harvested in 1× reporter lysis buffer and […]. After centrifugation at 4° C., 12000 rpm for 5 min, a 10 μl aliquot of the supernatant was assayed for luciferase activity with a Sirius luminometer (Berthold Detection System GmbH, Pforzheim, Germany). The luciferase activity was normalized against protein concentration, determined by a BCA protein assay (Pierce, Rockford, USA), and expressed as the fold induction over the luciferase activity of control vehicle-treated cells. At least two to three independent studies were conducted in triplicates. To determine the synergistic effect between the combination of two different compounds, the combination index (CI) was calculated with the following formula: […] This approach is based on the Loewe additivity model and although the exact mechanism of interaction may be unknown, this model is one of the most commonly used reference models for evaluating potential drug-drug interactions Lee et al., J Biopharm Stat 2007; 17: 461-480).

The next assay has as its system 5-methylcytosine (5-MC). Kind of assay: IHC staining of TRAMP prostate tissue, global CpG methylation. It counts as in vivo, mouse. Conditions: D-G1 and D-G2, p<0.001. As for the experimental part: Sections (4 μm) were cut from the paraffin embedded prostate tissue and mounted on glass slides. The slides Were deparafinized in xylene and antigen unmasking was performed by applying proteinase K digestion directly on the slides for 15 min. Endogenous peroxidase was blocked by incubating in 3% […] for 5 min, and ApopTag Plus Peroxidase In Situ Apoptosis Detection Kit (Millipore, Temecula, Calif., U.S.A.) was used to detect apoptotic cells. For detection of proliferative cells, monoclonal mouse anti-proliferating cell nuclear antigen (PCNA) antibody (Clone PC10, 1:50, Dako North America, Carpinteria, Calif., U.S.A.) was used (12). The staining was performed following as the manufacturer's protocols. Anti-5-methylcytosine (5-MC) mouse monoclone antibody (Clone 162 33 D3, 1:50, EMD Chemicals, Philadelphia, Pa., U.S.A.) was used to detect genome-wide methylated DNA. […] Quantitation of IHC staining was done using the Aperio ScanScope® GL system according to the manufactures protocol (Aperio Technologies Inc., Vista, Calif., U.S.A.). […] The Aperio ImageScopoe software (v 10.1.3.2028) allowed the unbiased quantification and quantitative analysis of the IHC staining of biomarkers of prostate tumor samples obtained from untreated control versus the treated TRAMP mice.

For assay [2], the system named is first 5 CpGs of Nrf2 gene promoter. Kind of assay: Methylated DNA immunoprecipitation (MeDIP) in TRAMP C1 cells. It is filed as cell-based, mouse. As for the experimental part: The DIM used in the study contains approximately 98% of DIM purchased from Sigma-Aldrich t St. Louis, Mo., USA), TRAMP C1 cells (provided by Dr. Barbara Foster, Department of Pharmacology and Therapeutics, Roswell Park Cancer institute, Buffalo. NY), originally derived from TRAMP prostate tumor, were cultured in Dulbecco's Modified Eagle's Medium (Invitrogen Corp., Carlsbad, Calif. U.S.A.) supplemented with 10% (V/V) fetal bovine serum (FBS) (Invitrogen Corp., Grand Island, N.Y., U.S.A.), penicillin 100 U/ml, and streptomycin 100 μg/ml (Invitrogen Corp., Grand Island, N.Y., U.S.A.), Cells were maintained in a humidified incubator with 5% CO2 at 37° C. Cells were seeded in 10 cm plates for 24 h and then treated with 0.1% DMSO (control) or different concentrations of DIM in 1% FBS containing medium for 5 days. The medium was changed every 2 days (20),
Genomic DNA (8 μg each) extracted from control and DIM treated TRAMP C1 cells were used for the MeDIP analysis, analogous to other chromatin immuno-precipitation (ChIP) analysis. The DNAs were adjusted to 150 μl using TE buffer in DNA. LoBind tubes. DNAs were fragmented by sonication on ice-water using a Bioruptor sonicator (Diagnode Inc., Sparta, N.J., U.S.A.) and the size of sheared DNA fragment (around 300 to 500 bp) was checked by gel electrophoresis. […]

Take `c1ccc2c(Cc3c[nH]c4ccccc34)c[nH]c2c1` [DIM, 3,3′-diindolylmethane]: the “induction of ARE-luciferase” value in assay [1] (75 μM, 24 h, compared with any other treatment (p<0.05)) is “strongly induced”; in assay [1] (doses lower than 25 μM, 10% FBS medium (data not shown)) it was “no significant induction”. Also, in the assay on 5-methylcytosine (5-MC), the “5-MC IHC staining of the prostate tissue” value was “significantly decreased”. In assay [2], the “methylated DNA bound by anti-mecyt antibody” value was “reduced”.
